In patent US5147652A, “Autobiotics and their use in eliminating nonself cells in vivo” (priority 1990, dated 1992):

Tests used:
Candida albicans = assay: Effect on proliferation of Candida albicans, disk on agar surface (A); type: cell-based
Protocol: Stock solutions of the following test compounds were dissolved in physiological saline. However DOV was dissolved in water.
C. albicans isolated from clinical specimens were density grown in SubbaRow's broth at 35 C. A loopful of yeast suspension was evenly spread on the surface of Muller-Hilton agar plates (7cm diameter) with a sterile cotton applicator and incubated for 12 hours. The test compounds were placed on the surface of the sensidisks (Whatmann No. 17 paper, 6mm diameter) in a volume of 5, 10, 20, and 50 μliter of stock solutions and made up a final volume of 50 μliter with saline. The plates then were placed and kept at 37 C for 24 hours (*) and 48 hours (**) when the diameters of the inhibitory rings were recorded. Photographs were also taken of plates.

[1] = system: implantation of fertilized mouse eggs; assay: Preventing pregnancy in mice; type: in vivo
Protocol: Six 5 month old female CD-1 mice were injected intraperitoneally with N-1 hydroxy acetonyl maleimide for 12 days (50 microgram/ 20 g mice in saline: max volume 0.6 ml/A/D). Another group of the same mice were injected intraperitoneally with saline for 12 days (0.4ml). this second group of mice served as the control.
Two experienced males were introduced to each group of females and kept together for 8 days during which time the females received their daily injection. Copulation plugs were seen on each female by the 12th day of injection, and signs of pregnancy were seen on the control females on the 15-16th day of the experiment. The females delivered on 20-23 (control) and 24-27th (treated) day respectively (Table 3).
The experiment was repeated with the same females two months later, except that females of the control group were assigned to the test group, while females of the test group were reassigned to the control group. […] The control group delivered 102 pups (T/C =100%).

[2] = system: blood coagulation (citrated human blood plasma); assay: Blood coagulation (i), ketoaldehyde kept 1-2 seconds before plasma added; type: biochemical; settings: 1-2 seconds contact
Protocol: (§1) 200 microliter thromboplastin (Ortho) was mixed with 10 microliter ketoaldehyde (KA) stock solution. Then 100 microliter citrated human blood plasma was added and the clot formation time (in seconds) was measured on a Fibrionometer. The effect of the ketoaldehyde on coagulation time was evaluated by comparing the clotting time of the KA treated plasma with the untreated control. The result (d%) was read from a special chart expressing the clotting activity.
(§2) All measurements were run in triplicates. The assay was run at 37 C (waterbath) in special tubes and all solutions were prewarmed.
(i) The plasminogen and ketoaldehyde were kept for
1-2 seconds before the blood plasma was added.

[3] = system: blood coagulation (normal plasma); assay: Blood coagulation (ii)(b), normal plasma; type: biochemical, human; settings: incubation time 120 seconds
Protocol: as §1, §2
(ii) The plasminogen and KA were incubated for
varying time before the blood plasma was added.
(b) with normal plasma: clotting time = 11. 7 sec

skin graft rejection = assay: Combatting rejection mechanism: orthotopic skin transplants between Swiss albino and C3HStCrl mice; type: in vivo
Protocol: The experiments described here were performed on random-bred Swiss albino mice (white, females, average body weight 26±3 g; Charles River CD-1-strain) and inbred C3HStCrl mice (cinnamon gray, females, average body weight […]; Charles River pedigreed breeders from L.C. Strong Foundation) and othotopic skin transplants were made in both ways, that is, white to gray and gray to white.
Standard transplantation technique (Billingham, R.E. and W.K. Silvers in Transplantation of Tissues and Cells, The Wistar Institute Press, Philadelphia, p. 8, (1961)) was utilized: From nembutal anesthetized animals 4-6 "pinch" -grafts (full thickness, 3-4 mm in diameter) of the close clipped and sterilized skin were collected from the thorax and immediately transplanted. The grafts were positioned in the "beds" (in place of the pinch-graft) and were held in position by tulle gras (vaseline-impregnated gauze) and by plaster-of-Paris impregnated bandage around the thorax.
The bandages were removed on the 6-9th day after the transplantation and the future development of the grafts was followed by macroscopical observations.
a. Animals were treated for 10 days with the composition before grafts were exchanged and treatment was discontinued on the day of transplantation.
b. Animals were not treated before the grafts were exchanged but the treatment started on the day of transplantation and continued for 10 days.
c. Animals were treated for 10 days with the drug before the grafts were exchanged and the treatment schedule was continued for 25 days after the transplantation.
+Treatment: daily injection with 3.744 mg/kg methylglyoxalmalcimide in 1.

[4] = ip, 50 microgram/20 g mice, 12 females

Compound: CC(=O)CC(=O)C(=O)O [DOV, 2,4-dioxovaleric acid, reference compound]
- inhibition diameters, in words (Candida albicans; 5-50 μliter, 24 hours (*)): negligible

Compound: CCOC(C)C(=O)C=O (centres unmarked) [KE, kethoxal, reference compound]
- inhibition diameters (Candida albicans; 10 μliter, 24 hours (*)): 7 mm
- inhibition diameters (Candida albicans; 20 μliter, 24 hours (*)): 17 mm
- inhibition diameters (Candida albicans; 20 μliter, 48 hours (**)): 16 mm
- inhibition diameters (Candida albicans; 50 μliter, 24 hours (*)): 25 mm
- inhibition diameters (Candida albicans; 50 μliter, 48 hours (**)): 24 mm

Compound: O=C1C=CC(=O)N1 [MALI, maleimide, reference compound]
- inhibition diameters (Candida albicans; 5 μliter, 24 hours (*)): 13 mm
- inhibition diameters (Candida albicans; 10 μliter, 24 hours (*)): 21 mm
- inhibition diameters (Candida albicans; 10 μliter, 48 hours (**)): 17 mm
- inhibition diameters (Candida albicans; 20 μliter, 24 hours (*)): 29 mm
- inhibition diameters (Candida albicans; 20 μliter, 48 hours (**)): 25 mm
- inhibition diameters (Candida albicans; 50 μliter, 24 hours (*)): 30 mm
- inhibition diameters (Candida albicans; 50 μliter, 48 hours (**)): 30 mm

Compound: CC(=O)C(O)N1C(=O)C=CC1=O (centres unmarked) [MGMALI]
- I % ([1]; ip, 50 microgram/20 g mice): 89.7%
- T/C % ([1]; ip, 50 microgram/20 g mice): 10.3%
- delivered (pups) [1, 4]: 11
- females that delivered [1, 4]: 2 female
- inhibition of delivery ([1]; second experiment, groups exchanged, two months later): 83.3%
- day of delivery ([1]; treated females, control 20-23): 24 to 27 days
- inhibition diameters (Candida albicans; 10 μliter, 24 hours (*)): 8 mm
- inhibition diameters (Candida albicans; 20 μliter, 24 hours (*)): 18 mm
- inhibition diameters (Candida albicans; 20 μliter, 48 hours (**)): 17 mm
- inhibition diameters (Candida albicans; 50 μliter, 24 hours (*)): 22 mm
- inhibition diameters (Candida albicans; 50 μliter, 48 hours (**)): 22 mm

Compound: O=CC(=O)Cc1ccccc1 [PMG, 3-Phenylmethylglyoxal]
- d % (clotting activity) ([2]; control 22): 10.5%
- coagulation time ([2]; control 24): 36 s
- clot ([2]; control hard): hard
- clotting time [3]: 21.2 s
- d% [3]: 28%

Compound: methylglyoxalmalcimide
- rejection (skin graft rejection; (a) pretreatment 10 days, printed g to 2, 31-40 days, cumulative): 100%
- rejection (skin graft rejection; (a) pretreatment 10 days, w to g, 26-30 days, cumulative): 30%
- rejection (skin graft rejection; (b) post graft treatment 10 days, printed g to 2, 31-40 days, cumulative): 10%
- rejection (skin graft rejection; (b) post graft treatment 10 days, w to g, 26-31 days, cumulative): 10%
- rejection (skin graft rejection; (c) pretreatment 10 days and post graft 25 days, g to w, 31-40 days, cumulative): 10%
- rejection (skin graft rejection; (c) pretreatment 10 days and post graft 25 days, w to g, 26-30 days): No rejection
